Laboratory results: patent US20260085053A1, “BENZOFURAN DERIVATIVES AS SIK INHIBITORS AND THE USE THEREOF” (BEONE MEDICINES I GMBH, priority 2023, published 2026)

What was measured:
[1] = target: T1, SIK3 kinase (aa59-365, Thermo Fisher) (Homo sapiens, UniProt Q9Y2K2); experiment: Biochemical activities determination for SIK3 protein (TR-FRET); conditions: 125 uM ATP, 0.5 μM STK1 substrate
T1 construct: SIK3 kinase (aa59-365, Thermo Fisher); purchased Thermo Fisher
Outline: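 SIK3 (aa59-365) was preincubated with compound (0-10 μM) for 60 min at room temperature in Tris buffer pH 7.5. The reaction was then started with 125 uM ATP and 0.5 μM STK1 substrate and run 180 min at room temperature. Phospho-substrate was detected by HTRF (665/620 nm ratio), and IC50 came from a four-parameter logistic fit.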

[2] = target: T2, SIK2 kinase (full length, Thermo Fisher) (Homo sapiens, UniProt Q9H0K1); experiment: Biochemical activities determination for SIK2 protein (TR-FRET); conditions: 80 uM ATP, 0.5 μM substrate
T2 construct: SIK2 kinase (full length, Thermo Fisher); purchased Thermo Fisher
Outline: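 Full-length SIK2 preincubated 60 min with 0–10 μM compound, then reacted 180 min at room temperature with 80 uM ATP and 0.5 μM biotinylated substrate (pH 7.5 Tris/MgCl2 buffer). Phosphorylation detected by TR-FRET (665/620 nm ratio, cryptate antibody/streptavidin-XL665) after overnight incubation; IC50 from four-parameter logistic fit.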

[3] = target: T3, SIK1 kinase (aa1-303, Thermo Fisher) (Homo sapiens, UniProt P57059); experiment: Biochemical activities determination for SIK1 protein (TR-FRET); conditions: 110 uM ATP, 0.5 μM STK1 substrate
T3 construct: SIK1 kinase (aa1-303, Thermo Fisher); purchased Thermo Fisher
Outline: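 TR-FRET kinase assay with SIK1 (aa1-303), 110 uM ATP, 0.5 μM STK1 substrate and 0-10 μM compound in Tris pH 7.5 with MgCl2, EGTA, DTT, Triton X-100. Enzyme preincubated with compound 60 min, reaction 180 min at room temperature; 665/620 nm ratio after overnight detection; IC50 from four-parameter logistic fit.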

T1 sequence (Q9Y2K2 59-365): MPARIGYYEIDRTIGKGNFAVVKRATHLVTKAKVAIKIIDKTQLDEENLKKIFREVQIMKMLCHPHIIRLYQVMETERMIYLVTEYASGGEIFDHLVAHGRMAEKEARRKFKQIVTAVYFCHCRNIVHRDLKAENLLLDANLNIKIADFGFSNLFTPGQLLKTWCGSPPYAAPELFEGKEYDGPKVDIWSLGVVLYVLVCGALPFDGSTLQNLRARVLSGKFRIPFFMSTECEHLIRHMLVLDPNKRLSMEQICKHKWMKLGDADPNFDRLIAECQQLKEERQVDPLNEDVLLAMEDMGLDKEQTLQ
T3 sequence (P57059 1-303): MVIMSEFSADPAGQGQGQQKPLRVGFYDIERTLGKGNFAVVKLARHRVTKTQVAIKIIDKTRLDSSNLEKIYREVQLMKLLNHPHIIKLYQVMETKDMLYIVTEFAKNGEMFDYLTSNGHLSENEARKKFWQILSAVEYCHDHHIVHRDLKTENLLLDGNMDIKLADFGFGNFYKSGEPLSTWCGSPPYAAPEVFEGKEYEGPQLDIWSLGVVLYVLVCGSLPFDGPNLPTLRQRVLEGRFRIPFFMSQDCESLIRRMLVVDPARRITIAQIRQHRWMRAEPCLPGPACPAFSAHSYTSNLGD
T2 sequence (Q9H0K1 whole entry): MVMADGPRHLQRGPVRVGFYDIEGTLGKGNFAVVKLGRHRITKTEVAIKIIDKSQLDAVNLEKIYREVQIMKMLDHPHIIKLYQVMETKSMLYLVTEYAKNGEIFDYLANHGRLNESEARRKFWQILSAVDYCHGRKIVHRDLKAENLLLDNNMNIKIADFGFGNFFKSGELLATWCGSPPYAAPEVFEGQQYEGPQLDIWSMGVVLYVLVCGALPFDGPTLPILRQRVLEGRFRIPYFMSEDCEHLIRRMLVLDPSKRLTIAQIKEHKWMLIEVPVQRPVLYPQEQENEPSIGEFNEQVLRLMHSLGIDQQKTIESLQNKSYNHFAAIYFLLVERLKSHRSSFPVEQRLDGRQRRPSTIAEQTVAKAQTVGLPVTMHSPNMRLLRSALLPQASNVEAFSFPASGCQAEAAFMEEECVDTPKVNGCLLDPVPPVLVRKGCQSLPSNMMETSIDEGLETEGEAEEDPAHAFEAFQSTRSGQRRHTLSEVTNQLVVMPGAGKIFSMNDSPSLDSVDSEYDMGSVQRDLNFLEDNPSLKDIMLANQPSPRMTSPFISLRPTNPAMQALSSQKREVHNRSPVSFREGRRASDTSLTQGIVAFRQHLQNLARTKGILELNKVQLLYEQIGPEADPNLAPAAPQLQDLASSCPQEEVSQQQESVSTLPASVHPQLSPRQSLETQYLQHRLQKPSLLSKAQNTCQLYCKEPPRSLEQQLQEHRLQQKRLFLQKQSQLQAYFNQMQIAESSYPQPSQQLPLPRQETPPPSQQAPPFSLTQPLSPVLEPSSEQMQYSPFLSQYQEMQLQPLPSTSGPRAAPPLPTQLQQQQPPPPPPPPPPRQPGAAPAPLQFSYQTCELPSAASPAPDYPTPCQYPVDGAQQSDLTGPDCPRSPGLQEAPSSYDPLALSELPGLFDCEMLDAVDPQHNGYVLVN

IC50 [1] | IC50 [2] | IC50 [3] | Structure (SMILES)
32 nM | 11 nM | 1890 nM | COc1cc(-c2coc3cc(OCCN4CC[C@H](C)C4)ccc23)cc(OC(F)F)c1C(=O)N[C@@H]1C[C@@H]1F [Compound 81, 2-(difluoromethoxy)-N-((1R,2S)-2-fluorocyclopropyl)-6-methoxy-4-(6-(2-((S)-3-methylpyrrolidin-1-yl)ethoxy)benzofuran-3-yl)benzamide]
57 nM | 15 nM | 1470 nM | COc1cc(-c2coc3cc(OCCN4CC[C@H](OC)C4)ccc23)cc(OC(F)F)c1C(=O)N[C@@H]1C[C@@H]1F [Compound 82, 2-(difluoromethoxy)-N-((1R,2S)-2-fluorocyclopropyl)-6-methoxy-4-(6-(2-((S)-3-methoxypyrrolidin-1-yl)ethoxy)benzofuran-3-yl)benzamide]
75 nM | 13 nM | 737 nM | COc1cc(-c2coc3cc(OCCN4CCN(C)CC4)ccc23)cc(OC(F)F)c1C(=O)N[C@@H]1C[C@@H]1F [Compound 83, 2-(difluoromethoxy)-N-((1R,2S)-2-fluorocyclopropyl)-6-methoxy-4-(6-(2-(4-methylpiperazin-1-yl)ethoxy)benzofuran-3-yl)benzamide]
44 nM | 9 nM | 559 nM | COc1cc(-c2coc3cc(OCCCN4CCCCC4)ccc23)cc(OC(F)F)c1C(=O)N[C@@H]1C[C@@H]1F [Compound 84, 2-(difluoromethoxy)-N-((1R,2S)-2-fluorocyclopropyl)-6-methoxy-4-(6-(3-(piperidin-1-yl)propoxy)benzofuran-3-yl)benzamide]
32.8 nM | 8.1 nM | 236 nM | COc1cc(-c2coc3cc(OCCCN4CCN(C)CC4)ccc23)cc(OC(F)F)c1C(=O)N[C@@H]1C[C@@H]1F [Compound 85, 2-(difluoromethoxy)-N-((1R,2S)-2-fluorocyclopropyl)-6-methoxy-4-(6-(3-(4-methylpiperazin-1-yl)propoxy)benzofuran-3-yl)benzamide]
43 nM | 18 nM | 562 nM | COc1cc(-c2coc3cc(OCCCN4CCOCC4)ccc23)cc(OC(F)F)c1C(=O)N[C@@H]1C[C@@H]1F [Compound 86, 2-(difluoromethoxy)-N-((1R,2S)-2-fluorocyclopropyl)-6-methoxy-4-(6-(3-morpholinopropoxy)benzofuran-3-yl)benzamide]
22 nM | 78 nM | 1090 nM | COc1cc(-c2coc3cc(OCCN4CCC(F)(F)C4)ccc23)cc(OC(F)F)c1C(=O)N[C@@H]1C[C@@H]1F [Compound 87, 2-(difluoromethoxy)-4-(6-(2-(3,3-difluoropyrrolidin-1-yl)ethoxy)benzofuran-3-yl)-N-((1R,2S)-2-fluorocyclopropyl)-6-methoxybenzamide]
68 nM | 17 nM | 4540 nM | COc1cc(-c2coc3cc(OCCN4CCC[C@H](C)C4)ccc23)cc(OC(F)F)c1C(=O)N[C@@H]1C[C@@H]1F [Compound 88, 2-(difluoromethoxy)-N-((1R,2S)-2-fluorocyclopropyl)-6-methoxy-4-(6-(2-((S)-3-methylpiperidin-1-yl)ethoxy)benzofuran-3-yl)benzamide]
74 nM | 24 nM | 4210 nM | COc1cc(-c2coc3cc(OCCN4CCC[C@@H](C)C4)ccc23)cc(OC(F)F)c1C(=O)N[C@@H]1C[C@@H]1F [Compound 89, 2-(difluoromethoxy)-N-((1R,2S)-2-fluorocyclopropyl)-6-methoxy-4-(6-(2-((R)-3-methylpiperidin-1-yl)ethoxy)benzofuran-3-yl)benzamide]
33 nM | 13 nM | 2350 nM | COc1cc(-c2coc3cc(OCCN4CC[C@H](C(C)C)C4)ccc23)cc(OC(F)F)c1C(=O)N[C@@H]1C[C@@H]1F [Compound 90, 2-(difluoromethoxy)-N-((1R,2S)-2-fluorocyclopropyl)-4-(6-(2-((R)-3-isopropylpyrrolidin-1-yl)ethoxy)benzofuran-3-yl)-6-methoxybenzamide]
74 nM | 31 nM | 2500 nM | COc1cc(-c2coc3cc(OCCN4CCCC[C@@H]4C)ccc23)cc(OC(F)F)c1C(=O)N[C@@H]1C[C@@H]1F [Compound 91, 2-(difluoromethoxy)-N-((1R,2S)-2-fluorocyclopropyl)-6-methoxy-4-(6-(2-((S)-2-methylpiperidin-1-yl)ethoxy)benzofuran-3-yl)benzamide]
104 nM | 32 nM | 3010 nM | COc1cc(-c2coc3cc(OCCN4CCCC[C@H]4C)ccc23)cc(OC(F)F)c1C(=O)N[C@@H]1C[C@@H]1F [Compound 92, 2-(difluoromethoxy)-N-((1R,2S)-2-fluorocyclopropyl)-6-methoxy-4-(6-(2-((R)-2-methylpiperidin-1-yl)ethoxy)benzofuran-3-yl)benzamide]
60 nM | 30 nM | 2530 nM | COc1cc(-c2coc3cc(OCCN4CCC(C)(C)C4)ccc23)cc(OC(F)F)c1C(=O)N[C@@H]1C[C@@H]1F [Compound 93, 2-(difluoromethoxy)-4-(6-(2-(3,3-dimethylpyrrolidin-1-yl)ethoxy)benzofuran-3-yl)-N-((1R,2S)-2-fluorocyclopropyl)-6-methoxybenzamide]
74 nM | 33 nM | 2870 nM | COc1cc(-c2coc3cc(OCCN4CCC(C)CC4)ccc23)cc(OC(F)F)c1C(=O)N[C@@H]1C[C@@H]1F [Compound 94, 2-(difluoromethoxy)-N-((1R,2S)-2-fluorocyclopropyl)-6-methoxy-4-(6-(2-(4-methylpiperidin-1-yl)ethoxy)benzofuran-3-yl)benzamide]
117 nM | 507 nM | > 10000 nM | COc1cc(-c2coc3cc(OCCN4CCCC4C(F)(F)F)ccc23)cc(OC(F)F)c1C(=O)N[C@@H]1C[C@@H]1F (stereo partly drawn) [Compound 95, 2-(difluoromethoxy)-N-((1R,2S)-2-fluorocyclopropyl)-6-methoxy-4-(6-(2-(2-(trifluoromethyl)pyrrolidin-1-yl)ethoxy)benzofuran-3-yl)benzamide]
43 nM | 22 nM | 2040 nM | CC[C@H]1CCN(CCOc2ccc3c(-c4cc(OC)c(C(=O)N[C@@H]5C[C@@H]5F)c(OC(F)F)c4)coc3c2)C1 [Compound 96, 2-(difluoromethoxy)-4-(6-(2-((S)-3-ethylpyrrolidin-1-yl)ethoxy)benzofuran-3-yl)-N-((1R,2S)-2-fluorocyclopropyl)-6-methoxybenzamide]
289 nM | 85 nM | 8350 nM | COc1cc(-c2coc3cc(OCCN4CCCC4)ccc23)cc(OC(F)F)c1C(=O)N[C@@H]1C[C@H]1F [Compound 97, 2-(difluoromethoxy)-N-((1R,2R)-2-fluorocyclopropyl)-6-methoxy-4-(6-(2-(pyrrolidin-1-yl)ethoxy)benzofuran-3-yl)benzamide]
525 nM | 128 nM | > 10000 nM | COc1cc(-c2coc3cc(OCCN4CCCC4)ccc23)cc(OC(F)F)c1C(=O)N[C@H]1C[C@H]1F [Compound 98, 2-(difluoromethoxy)-N-((1S,2R)-2-fluorocyclopropyl)-6-methoxy-4-(6-(2-(pyrrolidin-1-yl)ethoxy)benzofuran-3-yl)benzamide]
